Source: patent publication US6905834B1, “Bioluminescent bioreporter integrated circuit detection methods” (UT-Battelle, LLC, priority 1997, dated 2005)

Assays:
N. europaea Km^r hao-lux = test: Bioluminescence response of N. europaea hao-lux fusion to NH4+; type: cell-based, Nitrosomonas europaea
Method: The NH4^+ detection limits were determined to be 20 μM at 30 min of exposure and 10 μM at 60 min or 90 min of exposure (threefold increase over background bioluminescence).

[1] = Model parameters for naphthalene (diffusion, equilibrium constant); type: physicochemical
Text: Biot numbers were on the order of 100. Effectiveness factor calculations using the best-fit first-order reaction rate constant indicate that the beads were limited by the reaction rate and not by internal mass transfer resistance. The good fit obtained using the analytical solution, wherein external and internal mass transfer was assumed negligible, also support the conclusion that mass transfer effects were minimal. The model predicts that the salicylate distribution reaches a steady state within an alginate bead (99% of final) in about 7 minutes. Even assuming that the diffusion coefficient was reduced by an order of magnitude in the alginate matrix, a steady state was reached within 15 min. […] Cell volume estimated at less than 1% probably had little effect on diffusion. The model also predicted that liquid mass transfer resistance would have little effect on reaching steady state. […] A positive 50% error in the measured adsorption coefficient would result in doubling the time required to reach steady state. […] Model parameters have been measured (liquid mass transfer coefficient, pellet void volume, and adsorption coefficients), reported, and estimated. Respective coefficients for naphthalene were […], 9.0×10^−8 cm^2 s^−1 and 8.4 cm^2 s mol^−1 for liquid diffusion, solid diffusion, and Langmuir equilibrium constants. Companion free cell studies are needed to further aid evaluation of free and immobilized kinetics and response.

HK44 cells = conditions: liquid assays; cited from earlier work
P. fluorescens HK44 = type: cell-based, Pseudomonas fluorescens
Text: A previously developed PBR system with on-line instrumentation (Webb, 1992; Webb et al., 1991) was used to measure bacterial degradative and bioluminescent activity under conditions mimicking those of the subsurface. The reactor design is detailed in FIG. 21. The PBR was temperature controlled and fitted with metal frits welded to the inlet and outlet to retain and distribute feed to immobilized cultures. An additional inter-cavity insert allowed the installation of filters (e.g., […] inorganic and polymeric) between the packed bed and outlet frit that filtered the effluent for automatic injection into the on-line high-performance liquid chromatography (HPLC) and that produced a uniform resistance to flow that improved the overall distribution to the reactor (Webb, 1992). […] HPLC pumps supplied media to each reactor from pressurized feed reservoirs. All nutrients, including oxygen, entered the reactor dissolved in the liquid phase. Naphthalene and salicylate were detected with an on-line HPLC using a Vydac TP20154 column (Sep/A/Ra/Tions Group, Hesperia, Calif.) with a FL-4 dual-monochromator fluorescent detector (Perkin-Elmer, Norwalk, Conn.). Respective excitation and emission wavelengths for salicylate detection were 290 and 360 nm. The reactor was fitted with an on-line light detector for monitoring bioluminescent activity (Dunbar, 1992) consisting of a glued fiber bundle (Ensign Bickford Optics, Simsbury, Conn.) placed approximately 2.5 cm from the entrance of the reactor. An Oriel Inc. (Stratford, Conn.) 7070 photomultiplier detection system using a Model 77348 photomultiplier tube (radiant sensitivity of […] near 500 nm) were employed.
Mineral salts media (pH 7.2) consisting of MgSO4 7H2O ([…]), NH4NO3 ([…]), trizma™ base ([…]), MgO (1.0×10^−3 g/l), CaCl2 (2.9×10^−4 g/l), FeCl3.6H2O (5.4×10^−4 g/l), ZnSO4.7H2O (1.4×10^−4 g/l), CuSO4 (2.5×10^−5 g/l), […] (6.2×10^−6 g/l), and Na2MoO4.H2O (4.9×10^−5 g/l) were supplied to the reactor with an appropriate carbon source for degradation and bioluminescence studies. Kinetic bacterial studies were phosphate limited and maintained aerobic by con-trolled pressurization of feeds and the reactor.
The HK44 was prepared for immobilization by adding freshly thawed inoculum (frozen at −70° C. until use) to 100 mL of YEPG media which contained glucose (1.0 g/l), polypeptone (2.0 g/l), yeast extract (0.2 g/l), NH4NO3 (0.2 g/l), and tetracycline (14 mg/l). The culture was shaken for 15 hours at 25° C. and then centrifuged at 8000 rpm for 10 minutes. The pellet was then washed with 0.9% NaCl solution three times before immobilization. The concentration of HK44 was enumerated by measuring optical density at 546 nm. The HK44 was immobilized by suspending bacteria in 0.9% NaCl solution and mixing with a low-viscosity alginate (28 g/L) and NaCl (9 g/L) solution in a ratio of 1:2 by volume. Beads were formed by controlled dropwise addition to 0.1 M CaCl2 solution by a syringe needle installed in an air jet controlled by a precision regulator (Porter Instrument Co., Hatfield, Pa.) and a piece of 0.003-in. (i.d.) tubing. Beads diameters were measured using gentle wet sieving. Alginate beads were dissolved in 50 mM sodium hexametaphosphate. […]

[2] = Adsorption isotherms on calcium alginate; type: physicochemical
Method: Tracer concentrations were measured using a Waters ion-chromatography system with a series 510 HPLC pump, IC-PAK anion exchange column, and 431 conductance detector (Waters, Cam-bridge, MA) or monitored continuously using fluorescence.

S. cerevisiae HER = test: Sol-gel encapsulated yeast β-galactosidase bioreporter for estrogenic activity; type: cell-based, Saccharomyces cerevisiae; conditions: over a seven day period; comparable to non-encapsulated positive control
Method: Sol-gel encapsulation studies substituting another yeast strain, S. cerevisiae HER, a β-galactosidase bioreporter for estrogenic activity were conducted. Strain HER was successfully incorporated into the sol-gel matrix while retaining responsiveness to the estrogen inducer β-estradiol.

## N.N.O=S(=O)(O)O [NH4^+, (NH4)2SO4]
N. europaea Km^r hao-lux; 30 min of exposure
  NH4^+ detection limit (threefold increase over background bioluminescence): 20 µM
N. europaea Km^r hao-lux; 60 min or 90 min of exposure
  NH4^+ detection limit (threefold increase over background bioluminescence): 10 µM

## c1ccc2ccccc2c1 [naphthalene]
[1]
  Langmuir equilibrium constant: 8.4 cm^2 s mol^−1
  liquid diffusion coefficient: 9.0×10^6 cm^2 s^−1
  solid diffusion coefficient: 9.0×10^−8 cm^2 s^−1
HK44 cells
  linear luminescence response, lower concentration: 0.72 µg/L
  linear luminescence response, upper concentration: 3.25 mg/L
P. fluorescens HK44; experiment 5b, biomass […] 10^9 cells/mL, sodium salicylate 2.5 mg/L plus naphthalene 8.0, τ 15 min
  Bioluminescence ± σ: 4.79 ± 3.18 × 10^−1 nA
P. fluorescens HK44; identical conditions, alginate-immobilized HK44
  steady-state light response to naphthalene relative to response to salicylate: approximately two orders of magnitudes greater
[2]
  adsorption on calcium alginate (in words): adsorbed linearly
[2]; linear isotherm
  adsorption isotherm on calcium alginate, dimensionless ratio: 8.4

## C[C@]12CC[C@@H]3c4ccc(O)cc4CC[C@H]3[C@@H]1CC[C@@H]2O [β-estradiol]
S. cerevisiae HER
  estrogenic response of sol-gel encapsulated yeast cells (in words): an estrogenic response was initiated
